Test results published in US7285572B2, “CaSR antagonist” (Japan Tobacco Inc., priority 2003, dated 2007).

Assays:
human calcium receptor = target: T1, human calcium receptor (Homo sapiens, UniProt P41180); assay: Evaluation of antagonistic action on calcium receptor using reporter gene (luciferase); type: cell-based; conditions: rat adrenal derived cells with luciferase and human calcium receptor cDNA, 5 mM calcium chloride, 4 hrs; read-out: IC50 (concentration showing 50% inhibitory rate of luciferase activity)
T1 construct: expressed in transfected cells; host or cells: cell strain derived from rat adrenal, co-transfected with luciferase cDNA
T1 sequence (P41180 20-1078): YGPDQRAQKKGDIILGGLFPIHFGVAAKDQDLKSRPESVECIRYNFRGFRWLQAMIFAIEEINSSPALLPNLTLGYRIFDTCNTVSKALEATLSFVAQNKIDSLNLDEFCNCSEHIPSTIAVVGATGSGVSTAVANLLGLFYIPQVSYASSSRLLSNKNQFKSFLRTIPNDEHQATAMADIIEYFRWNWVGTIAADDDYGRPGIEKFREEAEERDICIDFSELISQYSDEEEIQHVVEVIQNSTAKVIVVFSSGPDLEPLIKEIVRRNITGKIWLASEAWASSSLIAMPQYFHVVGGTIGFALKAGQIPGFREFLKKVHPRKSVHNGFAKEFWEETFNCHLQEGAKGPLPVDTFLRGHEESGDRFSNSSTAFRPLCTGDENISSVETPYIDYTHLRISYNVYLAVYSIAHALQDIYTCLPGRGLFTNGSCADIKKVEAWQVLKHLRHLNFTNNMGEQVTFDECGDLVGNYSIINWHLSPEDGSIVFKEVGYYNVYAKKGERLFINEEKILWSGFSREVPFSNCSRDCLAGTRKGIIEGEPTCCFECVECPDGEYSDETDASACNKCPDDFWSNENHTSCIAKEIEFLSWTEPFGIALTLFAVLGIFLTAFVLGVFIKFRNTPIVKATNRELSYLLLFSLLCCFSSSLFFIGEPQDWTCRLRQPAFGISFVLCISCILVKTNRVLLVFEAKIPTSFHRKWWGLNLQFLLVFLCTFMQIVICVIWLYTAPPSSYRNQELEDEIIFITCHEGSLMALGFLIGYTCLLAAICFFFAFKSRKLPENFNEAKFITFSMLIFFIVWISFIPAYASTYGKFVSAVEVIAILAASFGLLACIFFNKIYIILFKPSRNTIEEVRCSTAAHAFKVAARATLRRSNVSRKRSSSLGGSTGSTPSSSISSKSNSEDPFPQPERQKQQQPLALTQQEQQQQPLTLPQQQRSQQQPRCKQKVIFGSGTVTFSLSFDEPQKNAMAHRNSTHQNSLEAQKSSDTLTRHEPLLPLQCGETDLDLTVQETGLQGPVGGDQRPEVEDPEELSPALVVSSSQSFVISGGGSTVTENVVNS
Method: Evaluation of Antagonistic Action on Calcium Receptor Using Reporter Gene
Luciferase cDNA and human calcium receptor cDNA were introduced into a cell strain derived from rat adrenal to transform the cells, and the transformed cells were cultured in a medium (80 μl, F12 medium containing 0.5% dialyzed horse serum and 0.25% dialyzed bovine fetal serum). A dimethyl sulfoxide solution containing a test compound at 0.1-10000 μM was diluted 100-fold with the medium and added to the test compound group at 10 μl per well (final concentration of dimethyl sulfoxide is 0.1%). In the same manner as in test compound group, dimethyl sulfoxide diluted 100-fold with medium was added to a control group and a blank group. Then, 50 mM calcium chloride-containing medium was added to every well except the blank group at 10 μl per well (final concentration is 5 mM). A medium alone was added to the blank group. After culture for 4 hrs, luciferase substrate was added and the luciferase activity was measured with a photoluminometer. The inhibitory rate (%) was calculated from the obtained measured values according to the following formula.
Based on the results, the concentration (IC50) showing 50% inhibitory rate was determined.

PTH secretion [1] = assay: PTH secretagogue action, oral administration to fasted male SD rats, serum PTH by ELISA; type: in vivo, rat; conditions: 3 mg/kg oral, test compound administration group
Method: The test compound was orally administered to 5 to 9-week-old male SD rats (Charles River Japan, Inc.) fasted for 20 hr, using a solvent (0.5% aqueous methyl cellulose solution) at a dose of 3 mg/5 ml/kg or 30 mg/5 ml/kg. A solvent alone was orally administered to the control group at a dose of 5 ml/kg. The blood was drawn from the tail vein 15 min, 30 min, 60 min and 120 min after the administration of the test compound, and serum was obtained. The serum PTH concentration was measured using rat PTH ELISA kit (Amersham Biosciences).

CYP2D6 = target: T2, CYP2D6 (Homo sapiens, UniProt P10635); assay: Metabolic enzyme CYP2D6 inhibitory activity (BD Bioscience kit); type: in vitro ADME; conditions: enzyme activity free of test compound as 100%; read-out: CYP2D6 IC50 (concentration showing 50% inhibition)
T2 construct: purchased BD Bioscience
Method: Metabolic Enzyme CYP2D6 Inhibitory Activity
Using a metabolic enzyme CYP2D6 inhibition measurement kit (BD Bioscience) and following the manual of the kit, the inhibitory activity of the test compound was measured. With the enzyme activity free of the test compound as 100%, the concentration (IC50) showing 50% inhibition was determined. The results are shown in Table 8, wherein “>10” means over 10 μM.

PTH secretion [2] = assay: Reproductive test of NPS-2143 of the reference (PTH secretion); type: in vivo
PTH release = conditions: cited from earlier work
[3] = system: osteoblast and osteoclast; conditions: in vitro; cited from earlier work

T2 sequence (P10635 whole entry): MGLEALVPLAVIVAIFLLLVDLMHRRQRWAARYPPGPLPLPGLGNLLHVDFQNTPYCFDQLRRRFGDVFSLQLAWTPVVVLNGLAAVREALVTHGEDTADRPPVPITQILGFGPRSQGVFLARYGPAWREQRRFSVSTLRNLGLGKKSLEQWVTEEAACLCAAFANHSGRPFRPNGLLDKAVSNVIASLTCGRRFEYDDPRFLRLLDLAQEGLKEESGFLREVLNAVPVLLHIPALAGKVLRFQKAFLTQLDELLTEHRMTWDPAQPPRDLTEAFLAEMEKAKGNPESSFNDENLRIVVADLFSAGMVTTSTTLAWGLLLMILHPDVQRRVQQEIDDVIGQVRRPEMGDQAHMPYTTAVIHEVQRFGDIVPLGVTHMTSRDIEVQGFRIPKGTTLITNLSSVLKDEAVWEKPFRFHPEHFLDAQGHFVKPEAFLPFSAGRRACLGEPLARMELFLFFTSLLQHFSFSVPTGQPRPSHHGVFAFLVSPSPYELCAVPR

| Compound | IC50 (human calcium receptor) [nM] | serum PTH concentration 15 min later (PTH secretion [1]) [pg/mL] | serum PTH concentration 30 min later (PTH secretion [1]) [pg/mL] | IC50 (CYP2D6) [nM] | PTH secretion promoting action (duration) (PTH secretion [2]) | blood concentration of NPS-2143 8 hours after the administration (PTH release; 100 μmol/kg, OVX rat) | blood concentration of NPS-2143 24 hours later (PTH release; 100 μmol/kg, OVX rat) [ng/mL] | blood PTH concentration 4 hours later (PTH release; NPS-2143 100 μmol/kg, OVX rat) | blood PTH concentration in 30 minutes (PTH release; NPS-2143 100 μmol/kg, OVX rat) | bone decrease or bone increase (PTH release; oral, OVX rats) | release of PTH (PTH release; oral, OVX rats) | direct effect on osteoblast and osteoclast [3] |
| --- | --- | --- | --- | --- | --- | --- | --- | --- | --- | --- | --- | --- |
| C[C@@H](OC[C@H](O)CNC(C)(C)Cc1ccc2ccccc2c1)c1ccccc1CCC(=O)O [Example 1, 3-[2-[(1R)-1-[(2R)-2-hydroxy-3-[[2-methyl-1-(naphthalen-2-yl)propan-2-yl]amino]propoxy]ethyl]phenyl]propionic acid] | 25 | 24.86 ± 3.59 | 18.58 ± 2.15 | 9500 |  |  |  |  |  |  |  |  |
| C[C@@H](OC[C@H](O)CNC(C)(C)Cc1ccc2ccccc2c1)c1ccccc1-c1ccc(P(=O)(O)O)cc1 [Example 12, Disodium [2′-[(1R)-1-[(2R)-2-hydroxy-3-[[2-methyl-1-(naphthalen-2-yl)propan-2-yl]amino]propoxy]ethyl]biphenyl-4-yl]phosphonate] | 29 |  |  | > 10000 |  |  |  |  |  |  |  |  |
| CC(C)(Cc1ccc2ccccc2c1)NC[C@@H](O)COc1cccc(Cl)c1C#N [NPS-2143] |  |  |  |  | sustained PTH secretion promoting action | not less than 100 ng/ml | ≤ 10 | about 140 pg/ml | about 115 pg/ml | free of bone decrease or bone increase | significantly promotes release of PTH | did not show any direct effect |
